Patent US8686115B2, “Compositions and methods for quantitatively monitoring lipids” (The Board of Trustees of the University of Illinois, priority 2009, dated 2014)
Changes are numbered by the printed parent chain.

How the values were obtained:
[1] = molecular target: T1, DAN-eENTH: epsin 1 ENTH domain variant M10C/C96A/S4W, SEQ ID NO: 2, labeled with DAN at C10 (Homo sapiens, UniProt Q9Y6I3, C96A/M10C/S4W); assay: Spectrofluorometry of DAN-eENTH binding to PtdIns(4,5)P2-containing LUVs
T1 construct: The Epsin1 ENTH domain (1-158 amino acids) was subcloned; GST (C, cleaved yes); made in house; host or cells: E. coli BL21 RIL codon plus
T1 sequence (Q9Y6I3 1-158 S4W/M10C/C96A): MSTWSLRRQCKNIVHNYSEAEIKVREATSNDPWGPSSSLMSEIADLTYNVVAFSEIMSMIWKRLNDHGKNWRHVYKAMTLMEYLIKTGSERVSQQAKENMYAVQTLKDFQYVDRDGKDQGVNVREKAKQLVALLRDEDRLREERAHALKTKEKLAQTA
Protocol: To check the feasibility of PtdIns(4,5)P2 quantification using our sensor, the change in fluorescence emission of DAN-eENTH upon membrane binding was measured by spectrofluorometry.
The theoretic curve was then constructed using these parameters.
Hitachi F-4500 spectrofluorometer was used for all cuvette-based fluorescence measurements. DAN-eENTH (typically 500 nM) was added to POPC/POPS/PtdIns(4,5)P2 (80-x:20:x) (x=0-3 mol %) LUV and the emission spectra of DAN were measured with excitation wavelength set at 392 nm. The same measurements were repeated with LUVs made of different phosphoinositides, e.g., POPC/POPS/PtdIns(3,4,5)P3 (77:20:3).

[2] = molecular target: T1, DAN-eENTH: epsin 1 ENTH domain variant M10C/C96A/S4W, SEQ ID NO: 2, labeled with DAN at C10; assay: Ratiometric (FB/FG) two-photon microscopy of DAN-eENTH binding to PtdIns(4,5)P2 in GUVs; conditions: FB/FG versus [PtdIns(4,5)P2]; POPC/POPS/PtdIns(4,5)P2 (80-x:20:x) GUVs; 37° C.; read-out: Kd for PtdIns(4,5)P2 (FB/FG ratiometric analysis)
Protocol: The background correction for FB/FG values was unnecessary because FB=0 in the absence of PtdIns(4,5)P2. […] The theoretic curve was then constructed using these parameters.
To calibrate the fluorescence microscope and the DAN-eENTH sensor for cellular PtdIns(4,5)P2 quantification, we then determined by photon counting F values in the blue channel (FB; observed with a 436±10 band pass filter) and the green channel (FG; observed with a 525±25 band pass filter) when DAN-eENTH was added to the solution of giant unilamellar vesicles (GUV) with the composition of POPC/POPS/PtdIns(4,5)P2 (80-x:20:x with x=0-3). […] The resulting FB versus the surface concentration of PtdIns(4,5)P2 ([PtdIns(4,5)P2]s; see Methods for calculation) (FIG. 2C) or (FB/FG) versus [PtdIns(4,5)P2]s (FIG. 2d) calibration curve was used for ensuing PtdIns(4,5)P2 quantification in GUV and in mammalian cells. With respect to FIG. 5, the bar indicates 10 μm and the radius of this GUV is measured as […]. […]
In vitro calibration of our DAN-eENTH sensor was performed using GUVs composed of POPC/POPS/PtdIns(4,5)P2 (80-x:20:x) (x=0-3 mol %). […] These GUV were mixed with DAN-eENTH in the concentration range of 0-500 nM and spatiotemporally resolved fluorescence measurements were carried out at 37° C. using the custom-built multi-photon, multi-channel microscope that was described previously 13. […]

[3] = molecular target: T2, DAN-eENTH (epsin 1 ENTH domain variant M10C/C96A/S4W, SEQ ID NO: 2, DAN labeled) mutant L6A/R7A/R8A (Homo sapiens, UniProt Q9Y6I3, C96A/L6A/M10C/R7A/R8A/S4W); assay: SPR binding of DAN-eENTH-L6A/R7A/R8A to phosphoinositide-containing LUVs; conditions: see Table 1
T2 construct: The Epsin1 ENTH domain (1-158 amino acids) was subcloned; GST (C, cleaved yes); made in house; host or cells: E. coli BL21 RIL codon plus
T2 sequence (Q9Y6I3 with tags, fused parts or gaps C96A): T1 sequence (Q9Y6I3 1-158 S4W/M10C/C96A) with L6A, R7A, R8A

- Kd for PtdIns(4,5)P2 (F450/F520 ratiometric analysis) ([1]; F450/F520 versus [PtdIns(4,5)P2], LUVs): 1.2+/−0.2 mol %
- Kd for PtdIns(4,5)P2 (F450 analysis) ([1]; F450 versus [PtdIns(4,5)P2], 500 nM DAN-eENTH, LUVs): 1.2+/−0.2 mol %
- Kd ([1]; F450 versus [PtdIns(4,5)P2], assumes only half of total lipids available to the sensor, read-out: Kd for PtdIns(4,5)P2 (F450 analysis, converted)): 60 nM
- Kd [2]: 44 ± 6 nM
- PtdIns(4,5)P2 affinity [3]: devoid of PtdIns(4,5)P2 affinity
Structure (SMILES): CCCCCCCCCCCCCCCC(=O)OC[C@H](COP(=O)(O)O[C@@H]1[C@H](O)[C@H](O)[C@@H](OP(=O)(O)O)[C@H](OP(=O)(O)O)[C@H]1O)OC(=O)CCCCCCCCCCCCCCC [PtdIns(4,5)P2, phosphatidylinositol-4,5-bisphosphate]
